Consider 13 compounds from patent publication US5972956A, “Inhibition of amyloidosis by 9-acridinones” (Warner-Lambert Company, priority 1998, dated 1999).

The target in the test is T1, beta amyloid peptide (1-40) (Homo sapiens, UniProt P05067).
T1 construct: beta amyloid peptide (1-40)
T1 sequence (P05067 672-711 limits assumed): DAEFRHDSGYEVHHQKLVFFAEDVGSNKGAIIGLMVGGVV
The test can be described thus: in vitro amyloid aggregation assay (filtration of I125-labeled peptide aggregates). Format: biochemical. Conditions: beta amyloid peptide (1-40) with I125 labeled peptide, sodium phosphate buffer pH 6.0, 2 hours at room temperature; read-out: IC50, concentration required to cause a 50% inhibition of amyloid aggregation. As to the method: The ability of the 9-acridinone compounds of the above formula to inhibit amyloid aggregation has been established in a standard in vitro assay. The assay is carried out by mixing beta amyloid peptide (1-40) with radioiodinated (I^125) labeled peptide to a concentration of 2.5 mg/mL in hexafluoroisopropanol. The mixture is diluted 1 to 5 with water (v/v). […] of the solution is mixed with 25 μL of 25 mM sodium phosphate buffer pH 6.0. The mixture is allowed to aggregate for 2 hours at room temperature with and without a test compound present. The mixtures are then diluted to 235 μL with phosphate buffer to stop the aggregation process. The solutions are passed through a 0.2-μm millipore filtermat. Aggregated protein remains in the filter well. The filter plate is washed with 50 μL of phosphate buffer and then soaked in solid gel scintillant and counted on a Microbeta counter to determine the amount of aggregation in the presence of a test compound versus control with no test compound.
Several representative 9-acridinone compounds have been evaluated in the above assay and shown to inhibit amyloid aggregation. The following table presents the activity of selected compounds, reported as the molar concentration of compounds required to cause a 50% inhibition (IC50) of amyloid aggregation in the above assay.
As for `CCN(CC)CCNc1ccc([N+](=O)[O-])c2[nH]c3ccc(O)cc3c(=O)c12` [Compound No. 9], the IC50 was 20.5 µM.

For `CSc1ccc2[nH]c3c([N+](=O)[O-])ccc(NCCCN(C)C)c3c(=O)c2c1` [compound 1], the IC50 was found to be 7.1 µM.

In the case of `CCN(CC)CCNc1ccc([N+](=O)[O-])c2[nH]c3ccc(SC)cc3c(=O)c12` [compound 2], the IC50 was determined as 9 µM.

`CCN(CC)CCNc1ccc([N+](=O)[O-])c2[nH]c3cc(OC)c(OC)cc3c(=O)c12` [compound 3]: the IC50 came to 11 µM.

Regarding `CCCCOc1ccc2[nH]c3c([N+](=O)[O-])ccc(NCCN(C)C)c3c(=O)c2c1` [compound 4], the IC50 amounted to 25 µM.

`CCN(CC)CCCNc1ccc([N+](=O)[O-])c2[nH]c3ccc(OC)cc3c(=O)c12` [compound 5]: the IC50 was 21 µM.

Turning to `CCN(CC)CCNc1ccc([N+](=O)[O-])c2[nH]c3cc(Cl)c(OC)cc3c(=O)c12` [compound 6], the IC50 is 18.7 µM.

For the compound `CCN(CC)CCNc1ccc([N+](=O)[O-])c2[nH]c3ccc(OCCN(CC)CC)cc3c(=O)c12` [compound 7], the IC50 was found to be 35.6 µM.

Consider `CCOc1ccc2[nH]c3c([N+](=O)[O-])ccc(NCCN(CCO)CCO)c3c(=O)c2c1` [compound 8], for which the IC50 amounted to 20 µM.

As for `CCN(CC)CCNc1ccc([N+](=O)[O-])c2[nH]c3ccc(OC)cc3c(=O)c12` [compound 10], the IC50 worked out at 13.9 µM.

In the case of `CCN(CC)CCNc1ccc([N+](=O)[O-])c2[nH]c3ccccc3c(=O)c12` [compound 11], the IC50 was 29.5 µM.

With `CCN(CC)CCNc1ccc([N+](=O)[O-])c2c1c(=O)c1cc(OC)ccc1n2C` [compound 12], the IC50 is 23.2 µM.

`CCOc1ccc2[nH]c3c([N+](=O)[O-])ccc(NC(C)CN(C)C)c3c(=O)c2c1` (stereo not shown) [compound 13]: the IC50 was 24.3 µM.
